The target in assay [1] is T1, Histone-lysine N-methyltransferase EHMT1 (Homo sapiens, UniProt Q9H9B1).
T1 sequence (Q9H9B1 whole entry): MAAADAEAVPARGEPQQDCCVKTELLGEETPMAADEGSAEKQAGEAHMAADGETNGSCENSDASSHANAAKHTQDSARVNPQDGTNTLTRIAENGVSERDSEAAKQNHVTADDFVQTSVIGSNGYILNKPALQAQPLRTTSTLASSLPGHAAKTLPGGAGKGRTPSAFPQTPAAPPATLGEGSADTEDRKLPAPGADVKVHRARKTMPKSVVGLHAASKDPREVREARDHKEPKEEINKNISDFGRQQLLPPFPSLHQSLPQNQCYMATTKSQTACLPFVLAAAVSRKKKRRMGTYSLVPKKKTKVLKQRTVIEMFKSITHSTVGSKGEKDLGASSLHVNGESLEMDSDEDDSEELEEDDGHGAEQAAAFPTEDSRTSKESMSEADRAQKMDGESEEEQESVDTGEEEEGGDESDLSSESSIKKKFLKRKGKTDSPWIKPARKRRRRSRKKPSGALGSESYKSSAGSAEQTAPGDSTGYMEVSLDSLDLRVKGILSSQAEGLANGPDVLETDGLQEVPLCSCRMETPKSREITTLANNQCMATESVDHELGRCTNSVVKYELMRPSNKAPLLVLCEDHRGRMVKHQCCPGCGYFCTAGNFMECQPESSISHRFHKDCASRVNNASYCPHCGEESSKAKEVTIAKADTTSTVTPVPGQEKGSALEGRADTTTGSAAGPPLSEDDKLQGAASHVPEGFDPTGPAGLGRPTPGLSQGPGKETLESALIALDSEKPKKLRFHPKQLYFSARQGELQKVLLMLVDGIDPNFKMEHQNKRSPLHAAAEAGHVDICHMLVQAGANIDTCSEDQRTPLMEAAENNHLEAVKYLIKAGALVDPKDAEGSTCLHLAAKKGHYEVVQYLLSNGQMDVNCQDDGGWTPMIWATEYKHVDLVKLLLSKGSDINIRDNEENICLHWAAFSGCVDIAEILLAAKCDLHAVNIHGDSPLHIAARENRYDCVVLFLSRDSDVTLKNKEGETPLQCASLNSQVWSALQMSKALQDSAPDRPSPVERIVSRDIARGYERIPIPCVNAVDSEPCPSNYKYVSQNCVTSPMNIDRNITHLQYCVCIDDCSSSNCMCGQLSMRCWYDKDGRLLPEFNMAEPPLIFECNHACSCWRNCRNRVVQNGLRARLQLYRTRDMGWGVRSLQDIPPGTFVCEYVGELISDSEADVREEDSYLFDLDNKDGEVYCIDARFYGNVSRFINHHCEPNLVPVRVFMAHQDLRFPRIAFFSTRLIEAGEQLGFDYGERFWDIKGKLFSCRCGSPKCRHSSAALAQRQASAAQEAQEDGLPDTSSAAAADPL
Put plainly: Inhibition of EHMT1 (unknown origin) by HMT assay.

The target in assay [2] is T2, Histone-lysine N-methyltransferase EHMT1 (Homo sapiens) (UniProt Q9H9B1).
T2 sequence (whole entry): T1 sequence (Q9H9B1 whole entry)
Put plainly: Inhibition of EHMT1 (unknown origin) at 10 uM by HMT assay.

Assay [3] concerns the target T3, Histone-lysine N-methyltransferase EHMT2 (Homo sapiens, UniProt Q96KQ7).
T3 sequence (Q96KQ7 whole entry): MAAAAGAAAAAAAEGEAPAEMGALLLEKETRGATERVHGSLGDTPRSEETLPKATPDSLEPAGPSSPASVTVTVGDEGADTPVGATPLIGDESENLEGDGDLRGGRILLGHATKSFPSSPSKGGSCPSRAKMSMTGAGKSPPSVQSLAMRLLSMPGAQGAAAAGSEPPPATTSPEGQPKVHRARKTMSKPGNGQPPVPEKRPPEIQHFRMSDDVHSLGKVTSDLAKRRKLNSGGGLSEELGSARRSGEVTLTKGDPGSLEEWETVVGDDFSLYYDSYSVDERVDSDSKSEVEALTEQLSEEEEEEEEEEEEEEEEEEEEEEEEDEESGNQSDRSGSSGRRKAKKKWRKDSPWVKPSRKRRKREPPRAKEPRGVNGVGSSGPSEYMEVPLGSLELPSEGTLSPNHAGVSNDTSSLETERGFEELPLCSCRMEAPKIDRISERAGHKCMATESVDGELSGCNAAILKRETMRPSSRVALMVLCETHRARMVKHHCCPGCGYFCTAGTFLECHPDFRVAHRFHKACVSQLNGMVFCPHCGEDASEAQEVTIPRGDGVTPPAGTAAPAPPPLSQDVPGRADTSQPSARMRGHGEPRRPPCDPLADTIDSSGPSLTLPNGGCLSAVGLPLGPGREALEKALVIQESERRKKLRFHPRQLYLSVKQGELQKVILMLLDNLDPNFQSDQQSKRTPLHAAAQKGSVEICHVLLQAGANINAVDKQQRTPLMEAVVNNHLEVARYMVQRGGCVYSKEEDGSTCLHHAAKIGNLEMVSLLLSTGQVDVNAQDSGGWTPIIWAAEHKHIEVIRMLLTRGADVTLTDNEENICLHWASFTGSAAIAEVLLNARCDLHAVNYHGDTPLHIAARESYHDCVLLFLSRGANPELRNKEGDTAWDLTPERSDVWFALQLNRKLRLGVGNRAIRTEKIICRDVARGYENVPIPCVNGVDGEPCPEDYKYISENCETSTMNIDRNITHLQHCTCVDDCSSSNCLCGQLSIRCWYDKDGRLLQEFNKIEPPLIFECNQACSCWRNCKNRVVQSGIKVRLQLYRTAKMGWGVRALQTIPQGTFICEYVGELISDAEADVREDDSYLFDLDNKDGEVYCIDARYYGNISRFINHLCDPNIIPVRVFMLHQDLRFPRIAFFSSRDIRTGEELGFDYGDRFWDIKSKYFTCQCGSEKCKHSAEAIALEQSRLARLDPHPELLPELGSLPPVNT
The assay can be described thus: Inhibition of G9a (unknown origin) by HMT assay.

Assay [4] addresses Histone-lysine N-methyltransferase KMT5C (Homo sapiens, UniProt Q86Y97). As to conditions: 10 uM.
Description: Inhibition of SUV420H2 (unknown origin) at 10 uM by HMT assay
Assay [5] deals with T4, Histone-lysine N-methyltransferase SETD7 (Homo sapiens, UniProt Q8WTS6).
T4 sequence (Q8WTS6 whole entry): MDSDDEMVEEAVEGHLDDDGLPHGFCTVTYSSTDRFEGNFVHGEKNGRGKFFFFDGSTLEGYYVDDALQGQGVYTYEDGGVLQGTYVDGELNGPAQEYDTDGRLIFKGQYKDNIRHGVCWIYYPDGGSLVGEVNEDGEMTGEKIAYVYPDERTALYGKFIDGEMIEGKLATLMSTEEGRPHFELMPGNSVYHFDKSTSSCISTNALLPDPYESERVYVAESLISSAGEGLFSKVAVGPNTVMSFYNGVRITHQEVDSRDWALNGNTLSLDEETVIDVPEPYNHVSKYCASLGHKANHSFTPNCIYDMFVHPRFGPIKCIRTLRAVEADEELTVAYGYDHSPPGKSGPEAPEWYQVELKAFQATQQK
The assay can be described thus: Inhibition of SETD7 (unknown origin) by HMT assay.

SMILES strings stand for the structures. Active and inactive are the calls of the source. The rule behind the calls is not given here.

Sequence of Histone-lysine N-methyltransferase KMT5C (Q86Y97 whole entry, looked up): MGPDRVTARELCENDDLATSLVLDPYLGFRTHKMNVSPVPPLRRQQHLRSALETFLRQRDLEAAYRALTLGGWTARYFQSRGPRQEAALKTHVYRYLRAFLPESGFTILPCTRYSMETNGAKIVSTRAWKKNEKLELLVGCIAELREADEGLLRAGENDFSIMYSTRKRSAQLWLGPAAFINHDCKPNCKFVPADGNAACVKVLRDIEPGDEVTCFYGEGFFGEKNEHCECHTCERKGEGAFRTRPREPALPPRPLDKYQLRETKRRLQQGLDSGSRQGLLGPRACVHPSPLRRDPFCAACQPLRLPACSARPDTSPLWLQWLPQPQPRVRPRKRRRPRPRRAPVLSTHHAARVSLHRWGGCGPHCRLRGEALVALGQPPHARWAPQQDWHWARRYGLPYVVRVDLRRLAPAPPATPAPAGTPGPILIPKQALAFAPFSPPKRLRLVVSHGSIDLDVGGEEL

For the molecule `Nc1ncnc2c1ncn2[C@@H]1O[C@H](CSCC[C@H](N)C(=O)NCc2cc(-c3ccccc3)[nH]n2)[C@@H](O)[C@H]1O`, the IC50 in assay [1] is greater than 30 µM; in assay [3], greater than 100 µM; in assay [5], greater than 100 µM. In addition, the inhibition in assay [2] stood at 24%. In addition, the inhibition result in assay [4] was “inactive”.

One may read the IC50 as the midpoint of a concentration-inhibition curve. Lower therefore signals greater potency. Broadly, the inhibition is the percentage by which the read-out fell short of the control.

(Values after ChEMBL document CHEMBL3396964, “SAH derived potent and selective EZH2 inhibitors” (Bioorg Med Chem Lett, 2015).)
